Patent US12110295B2, “WD40 repeat domain protein 5 (WDR5) degradation/disruption compounds and methods of use” (Icahn School of Medicine at Mount Sinai, priority 2018, dated 2024)

Target: WDR5 (Homo sapiens, UniProt P61964)
Experiment: Screening of putative WDR5 degraders by Western blot in MV4;11 and/or MIAPACA2 cells
Assay type: cell-based
Parameters: After WDR5 degrader treatment, cells were collected and lysed; endogenous in cells; host or cells: MV4;11 and/or MIAPACA2
Conditions: summary of screening, FIGS. 6-10
Procedure: MV4;11 cells were treated with DMSO or indicated compounds at 0.1 μM and 0.5 μM for 18 hours. […]. MIAPACA2 cells were treated with DMSO or indicated compounds at 0.5 μM and 1.0 μM for 18 hours.
MIAPACA2 cells were treated with DMSO or indicated compounds at 0.1 μM and 0.5 μM for 18 hours.
MIAPACA2 cells were treated with DMSO or indicated compounds at 0.5 μM and 1.0 μM or at 1.0 μM and 10 μM for 18 hours.
MV4;11 cells were treated with DMSO or indicated compounds at 0.1 μM and 1.0 μM for 18 hours.
WDR5 degraders were dissolved in DMSO and DMSO with no degraders was used as the control. 1×10^6 MV4;11 cells or 1×10^5 MIAPACA2 or 2×10^5 Hela cells were seeded in 2 mL medium for each well in […].
For prescreening of all the compounds, each test compound was added to the medium at indicated concentrations. After 18 h treatment, cells were collected.
After WDR5 degrader treatment, cells were collected and lysed. Total cell lysates were used for western blot. The following primary antibodies were used: WDR5 (Santa Cruz), vinculin (Cell Signaling Technology), tubulin (Cell Signaling Technology), GAPDH (Santa Cruz). Blots were imaged using fluorescence-labeled secondary antibodies on ChemiDoc™ Imaging Systems.

| SMILES | effective degradation of WDR5 in MV4;11 and/or MIAPACA2 cells |
| --- | --- |
| Cc1ncsc1-c1ccc(CNC(=O)[C@@H]2C[C@@H](O)CN2C(=O)[C@@H](NC(=O)CCCCCCCCC(=O)N2CC=C(c3cc(NC(=O)c4c[nH]c(=O)cc4C(F)(F)F)c(N4C[C@@H](C)N(C)[C@@H](C)C4)cc3F)CC2)C(C)(C)C)cc1 [XF078-45, N-(4-fluoro-5-(1-(10-(((S)-1-((2S,4R)-4-hydroxy-2-((4-(4-methylthiazol-5-yl)benzyl)carbamoyl)pyrrolidin-1-yl)-3,3-dimethyl-1-oxobutan-2-yl)amino)-10-oxodecanoyl)-1,2,3,6-tetrahydropyridin-4-yl)-2-((3S,5R)-3,4,5-trimethylpiperazin-1-yl)phenyl)-6-oxo-4-(trifluoromethyl)-1,6-dihydropyridine-3-carboxamide] | able to effectively degrade WDR5 |
| Cc1ncsc1-c1ccc(CNC(=O)[C@@H]2C[C@@H](O)CN2C(=O)[C@@H](NC(=O)CCCCCCCCCC(=O)N2CCN(c3ncc(-c4cc(NC(=O)c5ccc(F)cc5C(F)(F)F)c(N5C[C@@H](C)N(C)[C@@H](C)C5)cc4F)cn3)CC2)C(C)(C)C)cc1 [XF078-115, (2S,4R)-1-((S)-2-(11-(4-(5-(2-fluoro-5-(4-fluoro-2-(trifluoromethyl)benzamido)-4-((3S,5R)-3,4,5-trimethylpiperazin-1-yl)phenyl)pyrimidin-2-yl)piperazin-1-yl)-11-oxoundecanamido)-3,3-dimethylbutanoyl)-4-hydroxy-N-(4-(4-methylthiazol-5-yl)benzyl)pyrrolidine-2-carboxamide] | able to effectively degrade WDR5 |
| Cc1ncsc1-c1ccc(CNC(=O)[C@@H]2C[C@@H](O)CN2C(=O)[C@@H](NC(=O)COCCOCCOCC(=O)N2CCN(Cc3cnc(N4CC=C(c5cc(NC(=O)c6c[nH]c(=O)cc6C(F)(F)F)c(N6C[C@@H](C)N(C)[C@@H](C)C6)cc5F)CC4)nc3)CC2)C(C)(C)C)cc1 [XF078-136, N-(4-fluoro-5-(1-(5-((4-((S)-13-((2S,4R)-4-hydroxy-2-((4-(4-methylthiazol-5-yl)benzyl)carbamoyl)pyrrolidine-1-carbonyl)-14,14-dimethyl-11-oxo-3,6,9-trioxa-12-azapentadecanoyl)piperazin-1-yl)methyl)pyrimidin-2-yl)-1,2,3,6-tetrahydropyridin-4-yl)-2-((3S,5R)-3,4,5-trimethylpiperazin-1-yl)phenyl)-6-oxo-4-(trifluoromethyl)-1,6-dihydropyridine-3-carboxamide] | able to effectively degrade WDR5 |
| Cc1ncsc1-c1ccc(CNC(=O)[C@@H]2C[C@@H](O)CN2C(=O)[C@@H](NC(=O)CCCCCCCCCC(=O)N2CCN(c3ccc(-c4cc(NC(=O)c5c[nH]c(=O)cc5C(F)(F)F)c(N5C[C@@H](C)N(C)[C@@H](C)C5)cc4F)cn3)CC2)C(C)(C)C)cc1 [XF067-133, N-(4-fluoro-5-(6-(4-(11-(((S)-1-((2S,4R)-4-hydroxy-2-((4-(4-methylthiazol-5-yl)benzyl)carbamoyl)pyrrolidin-1-yl)-3,3-dimethyl-1-oxobutan-2-yl)amino)-11-oxoundecanoyl)piperazin-1-yl)pyridin-3-yl)-2-((3S,5R)-3,4,5-trimethylpiperazin-1-yl)phenyl)-6-oxo-4-(trifluoromethyl)-1,6-dihydropyridine-3-carboxamide] | able to effectively degrade WDR5 |
| Cc1ncsc1-c1ccc(CNC(=O)[C@@H]2C[C@@H](O)CN2C(=O)[C@@H](NC(=O)CCCCCC(=O)N2CCN(c3ncc(-c4cc(NC(=O)c5ccc(F)cc5C(F)(F)F)c(N5C[C@@H](C)N(C)[C@@H](C)C5)cc4F)cn3)CC2)C(C)(C)C)cc1 [XF078-111, (2S,4R)-1-((S)-2-(7-(4-(5-(2-fluoro-5-(4-fluoro-2-(trifluoromethyl)benzamido)-4-((3S,5R)-3,4,5-trimethylpiperazin-1-yl)phenyl)pyrimidin-2-yl)piperazin-1-yl)-7-oxoheptanamido)-3,3-dimethylbutanoyl)-4-hydroxy-N-(4-(4-methylthiazol-5-yl)benzyl)pyrrolidine-2-carboxamide] | able to effectively degrade WDR5 |
| Cc1ncsc1-c1ccc(CNC(=O)[C@@H]2C[C@@H](O)CN2C(=O)[C@@H](NC(=O)CCCCCCC(=O)N2CCN(Cc3cnc(N4CC=C(c5cc(NC(=O)c6c[nH]c(=O)cc6C(F)(F)F)c(N6C[C@@H](C)N(C)[C@@H](C)C6)cc5F)CC4)nc3)CC2)C(C)(C)C)cc1 [XF078-145, N-(4-fluoro-5-(1-(5-((4-(8-(((S)-1-((2S,4R)-4-hydroxy-2-((4-(4-methylthiazol-5-yl)benzyl)carbamoyl)pyrrolidin-1-yl)-3,3-dimethyl-1-oxobutan-2-yl)amino)-8-oxooctanoyl)piperazin-1-yl)methyl)pyrimidin-2-yl)-1,2,3,6-tetrahydropyridin-4-yl)-2-((3S,5R)-3,4,5-trimethylpiperazin-1-yl)phenyl)-6-oxo-4-(trifluoromethyl)-1,6-dihydropyridine-3-carboxamide] | able to effectively degrade WDR5 |
| Cc1ncsc1-c1ccc(CNC(=O)[C@@H]2C[C@@H](O)CN2C(=O)[C@@H](NC(=O)CCOCCOCCC(=O)N2CCN(Cc3cnc(N4CC=C(c5cc(NC(=O)c6c[nH]c(=O)cc6C(F)(F)F)c(N6C[C@@H](C)N(C)[C@@H](C)C6)cc5F)CC4)nc3)CC2)C(C)(C)C)cc1 [XF078-135, N-(4-fluoro-5-(1-(5-((4-(3-(2-(3-(((S)-1-((2S,4R)-4-hydroxy-2-((4-(4-methylthiazol-5-yl)benzyl)carbamoyl)pyrrolidin-1-yl)-3,3-dimethyl-1-oxobutan-2-yl)amino)-3-oxopropoxy)ethoxy)propanoyl)piperazin-1-yl)methyl)pyrimidin-2-yl)-1,2,3,6-tetrahydropyridin-4-yl)-2-((3S,5R)-3,4,5-trimethylpiperazin-1-yl)phenyl)-6-oxo-4-(trifluoromethyl)-1,6-dihydropyridine-3-carboxamide] | able to effectively degrade WDR5 |
| CN1CCN(c2ccc(-c3cccc(CN4CCN(CCNC(=O)CCCCCCCOc5cccc6c5C(=O)N(C5CCC(=O)NC5=O)C6=O)CC4)c3)cc2NC(=O)c2c[nH]c(=O)cc2C(F)(F)F)CC1 (centres unmarked) [XF056-39, N-(3′-((4-(2-(8-((2-(2,6-dioxopiperidin-3-yl)-1,3-dioxoisoindolin-4-yl)oxy)octanamido)ethyl)piperazin-1-yl)methyl)-4-(4-methylpiperazin-1-yl)-[1,1′-biphenyl]-3-yl)-6-oxo-4-(trifluoromethyl)-1,6-dihydropyridine-3-carboxamide] | able to effectively degrade WDR5 |
| Cc1ncsc1-c1ccc(CNC(=O)[C@@H]2C[C@@H](O)CN2C(=O)[C@@H](NC(=O)CCCCC(=O)NCCN2CCN(Cc3ccc(F)c(-c4ccc(N5C[C@@H](C)N(C)[C@@H](C)C5)c(NC(=O)c5c[nH]c(=O)cc5C(F)(F)F)c4)c3)CC2)C(C)(C)C)cc1 [XF078-12, N^1-(2-(4-((6-fluoro-3′-(6-oxo-4-(trifluoromethyl)-1,6-dihydropyridine-3-carboxamido)-4′-((3S,5R)-3,4,5-trimethylpiperazin-1-yl)-[1,1′-biphenyl]-3-yl)methyl)piperazin-1-yl)ethyl)-N^6-((S)-1-((2S,4R)-4-hydroxy-2-((4-(4-methylthiazol-5-yl)benzyl)carbamoyl)pyrrolidin-1-yl)-3,3-dimethyl-1-oxobutan-2-yl)adipamide] | able to effectively degrade WDR5 |
| C[C@@H]1CN(c2cc(F)c(-c3cnc(N4CCN(C(=O)CCCCCCNc5cccc6c5C(=O)N(C5CCC(=O)NC5=O)C6=O)CC4)nc3)cc2NC(=O)c2ccc(F)cc2C(F)(F)F)C[C@H](C)N1C (stereo partly drawn) [XF078-121, N-(5-(2-(4-(7-((2-(2,6-dioxopiperidin-3-yl)-1,3-dioxoisoindolin-4-yl)amino)heptanoyl)piperazin-1-yl)pyrimidin-5-yl)-4-fluoro-2-((3S,5R)-3,4,5-trimethylpiperazin-1-yl)phenyl)-4-fluoro-2-(trifluoromethyl)benzamide] | able to effectively degrade WDR5 |
| Cc1ncsc1-c1ccc(CNC(=O)[C@@H]2C[C@@H](O)CN2C(=O)[C@@H](NC(=O)CCCCC(=O)N2CCN(Cc3cnc(N4CC=C(c5cc(NC(=O)c6c[nH]c(=O)cc6C(F)(F)F)c(N6C[C@@H](C)N(C)[C@@H](C)C6)cc5F)CC4)nc3)CC2)C(C)(C)C)cc1 [XF078-143, N-(4-fluoro-5-(1-(5-((4-(6-(((S)-1-((2S,4R)-4-hydroxy-2-((4-(4-methylthiazol-5-yl)benzyl)carbamoyl)pyrrolidin-1-yl)-3,3-dimethyl-1-oxobutan-2-yl)amino)-6-oxohexanoyl)piperazin-1-yl)methyl)pyrimidin-2-yl)-1,2,3,6-tetrahydropyridin-4-yl)-2-((3S,5R)-3,4,5-trimethylpiperazin-1-yl)phenyl)-6-oxo-4-(trifluoromethyl)-1,6-dihydropyridine-3-carboxamide] | able to effectively degrade WDR5 |
